Experimental data as given in paper PMC4413647, “Simultaneous targeting of androgen receptor (AR) and MAPK-interacting kinases (MNKs) by novel retinamides inhibits growth of human prostate cancer cell lines” (Oncotarget, 2014).

Columns and labels:
Assay type in all cases: cell-based, human
fAR, MNK1, MNK2, peIF4E = test: Western blot of fAR, MNK1, MNK2, peIF4E in VNLG-152 treated LNCaP cells
Experimental: (§1) Figure 6 Effect of siAR, siMNK1 on LNCaP cell viability, and VNLG-152 on key and downstream proteins in LNCaP cells (A) Western blot analysis of the expression of fAR, MNK1 and peIF4E in LNCaP cells transfected with 100 nM of siAR, siMNK1 and combinations for 18 h. (B) Effect of VNLG-152 (5 μmol) on cell proliferation in LNCaP cells transfected with siAR, siMNK1 and combinations as determined by MTT assay. The results represent the mean ± SEM of three independent experiments and are represented as a bar graph after normalizing to control cells. *, P< 0.05; ♣, P<0.01 compared with vehicle treated control. (C) Dose-dependent effect of VNLG-152 on the expression of AR, MNKs, peIF4E and downstream target proteins. Total cell lysate from LNCaP cells treated with VNLG-152 (0 - 20 μmol/L) for 24 h were separated by SDS-PAGE and probed with corresponding antibodies. Vehicle treated cells were included as control and all blots were reprobed for β-actin to ensure equal protein loading.
Figure 7 VNLG-152 induced AR degradation by ubiquitin proteasomal pathway in LNCaP cells (A) Western blot analysis of the expression of fAR in LNCaP cells treated with VNLG-152 (20 μmol/L) in the presence or absence of CHX (10 μmol/L) at 6, 12 and 24 h of treatment. (B) Densitometric analysis of the expression of fAR in different groups *, P< 0.05; ♣, P<0.01 compared with vehicle treated control. (C) Western blot analysis of the expression of fAR in LNCaP cells treated with VNLG-152 (20 μmol/L) in the presence or absence of MG-132 (5 μmol/L). (D) LNCaP cells were treated with 20 μmol/L of VNLG-152, 5 μmol/L of MG-132, and combinations for 24 h. AR protein was immunoprecipitated with AR antibody (mouse) and the precipitated protein was subjected to western blot analysis with anti-ubiquitin antibody (Ub) ([…]). The same blot was used to detect AR protein with anti-AR (rabbit) antibody after stripping (C, lower panel). […]

PC-3 cells = test: Boyden chamber matrigel invasion assay; settings: PC-3, 5 μM, 24 h
Experimental: Figure 5 Anti-migratory and anti-invasive potential of NRs (A) Effect of NRs treatment (5 μmol/L) on PC-3 cell migration was assessed by wound healing assay after 24 h of wound formation. Representative photomicrographs of initial and final wounds are shown at 100x magnification. (B) Effect of NRs on PC-3 cell invasion was evaluated by transwell migration assay. PC-3 cells were seeded on matrigel coated boyden chamber and treated with NRs (5 μmol/L, 24 h). Photographs represent the extent of cell invasion in each of the treated cells. (C) Western blot analysis of the effect of NRs on the expression of cadherins in PC-3 cells. Cells were treated with indicated compound 20 μmol/L for 24 h.
The invasion assay in PC-3 cells was performed using Matrigel (BD Biosciences, Bedford, MA, USA)-coated transwell cell culture chambers (8 μm pore size, EMD Millipore, Temecula, CA, USA) as described previously (43). Briefly, PC-3 cells (5 × 10^4 cells/well) were cultured in the upper chamber of the transwell insert for 24 h in serum-free RPMI-1640 medium. The cells were then treated with 5 μM of indicated compounds for 24 h. RPMI-1640 medium containing 10% FBS was placed in the lower chamber. At the end of incubation, the top surface of the non-migrated cells were scraped gently with cotton swabs and the cells on the lower surface of the membrane (migrated cells) were fixed for 15 min with cold methanol and stained with crystal violet. Cells that had migrated to the bottom of the membrane were visualized and counted using an inverted microscope. For each replicate (n = 3), cells in three randomly selected fields were counted and averaged.

LNCaP cells = test: MTT cell viability of LNCaP cells with AR/MNK1 siRNA and VNLG-152; settings: untransfected cells, 5 μM, 72 h
From the text: To confirm whether the observed anti-cancer effects of VNLG-152 on PCa cells was primarily due to its inhibitory effects on AR and MNK, we investigated the impact of AR and/or MNK siRNA on the survival of LNCaP cells by MTT assay. […] Co-transfection of LNCaP cells with both AR and MNK1 siRNA (compare lanes 1 and 4) further augmented loss of viability in LNCaP cells.
as §1, with “loading. […]” for “loading.”

SMILES: CC1=C(/C=C/C(C)=C/C=C/C(C)=C/C(=O)Nc2ccc(F)cc2)C(C)(C)CCC1n1ccnc1 (racemic) [VNLG-152]
- time by which AR and MNK (MNK1 and MNK2) were profoundly reduced (fAR, MNK1, MNK2, peIF4E; 20 μmol/L): ≤ 12 h
- concentration of maximal effect on MNK2 expression (fAR, MNK1, MNK2, peIF4E; 0.6-20 μM, 24 h): 20 µM
- concentration with notable decrease in expression of fAR, MNK1 and peIF4E (fAR, MNK1, MNK2, peIF4E; 0.6-20 μM, 24 h): ≥ 2.5 µM
- percentage of cell invasion compared to control (PC-3 cells): 13
- LNCaP cell viability (LNCaP cells): robust reduction
